We go through 7 compounds from ChEMBL document CHEMBL1145110, “Oxidosqualene cyclase inhibitors as antimicrobial agents” (J Med Chem, 2003).

Assay [1] relates to Leishmania mexicana. As to the kind of experiment: Tested for inhibition of growth Leishmania mexicana in a pathogen cell culture assay. As to conditions: read-out: ED50 (the source's name). Type of assay: functional.
The test system of another assay is NIH3T3. As to the kind of experiment: Tested for inhibition of growth of NIH3T3 cells a in a pathogen cell culture assay. In kind it is functional. As to conditions: Mus musculus, read-out: ED50 (the source's name).
The target of the next assay is T1, Lanosterol synthase (Rattus norvegicus, UniProt P48450).
T1 sequence (P48450 whole entry): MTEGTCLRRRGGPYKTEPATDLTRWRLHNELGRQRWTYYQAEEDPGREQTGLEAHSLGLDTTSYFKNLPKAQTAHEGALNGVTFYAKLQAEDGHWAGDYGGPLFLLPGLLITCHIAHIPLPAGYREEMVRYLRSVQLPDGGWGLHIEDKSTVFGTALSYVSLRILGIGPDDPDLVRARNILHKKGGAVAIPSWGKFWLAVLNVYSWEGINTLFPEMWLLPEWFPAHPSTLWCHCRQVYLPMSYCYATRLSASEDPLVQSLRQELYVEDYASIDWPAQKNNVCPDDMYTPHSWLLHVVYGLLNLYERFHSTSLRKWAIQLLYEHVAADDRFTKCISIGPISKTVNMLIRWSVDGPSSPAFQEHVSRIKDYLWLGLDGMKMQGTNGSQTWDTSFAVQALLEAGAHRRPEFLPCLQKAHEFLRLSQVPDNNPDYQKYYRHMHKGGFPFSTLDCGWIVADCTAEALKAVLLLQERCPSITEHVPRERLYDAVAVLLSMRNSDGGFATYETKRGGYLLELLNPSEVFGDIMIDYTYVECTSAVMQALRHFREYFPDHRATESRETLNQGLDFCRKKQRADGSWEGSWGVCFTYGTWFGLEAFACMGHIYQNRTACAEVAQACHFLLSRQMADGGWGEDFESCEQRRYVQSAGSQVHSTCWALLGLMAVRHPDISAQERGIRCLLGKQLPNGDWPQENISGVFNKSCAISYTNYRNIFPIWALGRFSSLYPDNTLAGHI
As to the kind of experiment: Tested for Oxidosqualene-lanosterol cyclase inhibition in rat.

For assay [2], the system named is Trypanosoma cruzi. As to the kind of experiment: Tested for inhibition of growth Trypanosoma cruzi in a pathogen cell culture assay. Type of assay: functional. To be noted: read-out: ED50 (the source's name).
Assay [3] deals with Trypanosoma brucei. As to the kind of experiment: Tested for inhibition of growth Trypanosoma brucei in a pathogen cell culture assay. Type of assay: functional. To be noted: read-out: ED50 (the source's name).
The test system of assay [4] is Pneumocystis carinii. As to the kind of experiment: Tested for inhibition of growth Pneumocystis carinii in a pathogen cell culture assay, at a concentration of 10 uM. In kind it is functional.
The subject of assay [5] is Toxoplasma gondii. As to the kind of experiment: Tested for inhibition of growth Toxoplasma gondii in a pathogen cell culture assay, at a concentration of 10 uM. Type of assay: functional.
The subject of assay [6] is Toxoplasma gondii. As to the kind of experiment: Tested for inhibition of growth of Toxoplasma gondii in a pathogen cell culture assay, at a concentration of 10 uM. In kind it is functional.
Assay [7] relates to Trypanosoma brucei. As to the kind of experiment: Tested for inhibition of growth of Trypanosoma brucei in a pathogen cell culture assay. Type of assay: functional. To be noted: read-out: ED50 (the source's name).
Assay [8] concerns Trypanosoma cruzi. As to the kind of experiment: Tested for inhibition of growth of Trypanosoma cruzi in a pathogen cell culture assay. In kind it is functional. To be noted: read-out: ED50 (the source's name).
Assay [9] has as its system Pneumocystis carinii. As to the kind of experiment: Tested for inhibition of growth of Pneumocystis carinii in a pathogen cell culture assay, at a concentration of 10 uM. In kind it is functional.
The subject of assay [10] is Leishmania mexicana. As to the kind of experiment: Tested for inhibition of growth of Leishmania mexicana in a pathogen cell culture assay. In kind it is functional. To be noted: read-out: ED50 (the source's name).

By IC50 is commonly meant the point on the concentration scale where inhibition reaches its midpoint. In general, inhibition refers to the relative decrease from the control value, in per cent. A high value points to a response far below the control. Regarding `CN(C)CCCOc1ccc(-c2ccccc2)cc1`, the EC50 with Leishmania mexicana [1] was 400 nM; in the assay with NIH3T3, over 10 µM; with Trypanosoma cruzi [2] it was 1000 nM; in the assay on Trypanosoma brucei [3] it was over 10 µM. This compound returned an IC50 at Lanosterol synthase of 2500 nM. The inhibition at 10 µM with Pneumocystis carinii [4] amounted to 95%; in the assay on Toxoplasma gondii [5], 17%.
On to `OCCN1CCN(CCOc2ccc(-c3ccccc3)cc2)CC1`, for which the EC50 in the assay with Leishmania mexicana [1] was 400 nM; with NIH3T3, over 10 µM; with Trypanosoma cruzi [2], 1000 nM; in the assay with Trypanosoma brucei [3] it was over 10 µM. In addition, the inhibition at 10 µM in the assay with Pneumocystis carinii [4] came out at 95%; in the assay with Toxoplasma gondii [5], 28%.
Regarding `CCN(CC)CCOc1ccc(-c2ccccc2)cc1`, the EC50 in the assay on Leishmania mexicana [1] is 10000 nM; in the assay with NIH3T3 it was over 10 µM; in the assay on Trypanosoma cruzi [2], over 10000 nM; in the assay with Trypanosoma brucei [3], over 10 µM. In addition, the results for the inhibition at 10 µM with Pneumocystis carinii [4] and with Toxoplasma gondii [5] were 95% and under 1%, respectively.
Consider `C=CCN(C)CCCCCCOc1ccc(C(=O)c2ccc(Cl)cc2)c(F)c1`, for which the midpoint of inhibition on Lanosterol synthase, the IC50, lay at 49 nM.
Consider `O=C(c1ccc(Cl)cc1)c1ccc(OCCN2CCN(CCO)CC2)cc1`, for which the EC50 is 400 nM with Leishmania mexicana [1], over 10 µM in the assay with NIH3T3, 1000 nM in the assay on Trypanosoma cruzi [2] and over 10 µM with Trypanosoma brucei [3]. Moreover, the figures for the inhibition at 10 µM with Pneumocystis carinii [4] and in the assay with Toxoplasma gondii [5] were 95% and 28%, respectively.
Take `O=C(c1ccc(Cl)cc1)c1ccc(OC2CN3CCC2CC3)cc1` (centres undefined): the inhibition at 10 µM in the assay with Toxoplasma gondii [6] was determined as 48%; in the assay on Pneumocystis carinii [9] it was 81%. The EC50 in the assay on NIH3T3 was over 10 µM; in the assay on Trypanosoma brucei [7] it was over 10 µM; in the assay with Trypanosoma cruzi [8], 1000 nM; in the assay on Leishmania mexicana [10] it was 400 nM. In addition, at Lanosterol synthase, inhibition was half-maximal at 160 nM (IC50).
With `CN(C)CCCOc1ccc(C(=O)c2ccc(Cl)cc2)cc1`, the EC50 was 400 nM in the assay on Leishmania mexicana [1], over 10 µM in the assay with NIH3T3, 1000 nM with Trypanosoma cruzi [2] and over 10 µM in the assay on Trypanosoma brucei [3]. The values for the inhibition at 10 µM in the assay with Pneumocystis carinii [4] and in the assay on Toxoplasma gondii [5] were 95% and 17%, respectively.
